According to patent US10472356B2, “Bicyclic ketone sulfonamide compounds” (AMGEN INC., priority 2015, dated 2019):
pIC50: −log10 of the molar value.

What was measured:
human Nav1.7 [1] = target: T1, human Nav1.7 (Homo sapiens, UniProt Q15858); test: Nav 1.7 IWB In Vitro Assay (IonWorks Barracuda); format: cell-based; details: HEK293 cells stably transfected with human Nav 1.7; IonWorks Barracuda population patch-clamp; cells clamped to −20 mV for 4 minutes with compound; 26th pulse; read-out: hNav1.7 IWB IC50
T1 construct: expressed in transfected cells; host or cells: HEK293
T1 sequence (Q15858 whole entry): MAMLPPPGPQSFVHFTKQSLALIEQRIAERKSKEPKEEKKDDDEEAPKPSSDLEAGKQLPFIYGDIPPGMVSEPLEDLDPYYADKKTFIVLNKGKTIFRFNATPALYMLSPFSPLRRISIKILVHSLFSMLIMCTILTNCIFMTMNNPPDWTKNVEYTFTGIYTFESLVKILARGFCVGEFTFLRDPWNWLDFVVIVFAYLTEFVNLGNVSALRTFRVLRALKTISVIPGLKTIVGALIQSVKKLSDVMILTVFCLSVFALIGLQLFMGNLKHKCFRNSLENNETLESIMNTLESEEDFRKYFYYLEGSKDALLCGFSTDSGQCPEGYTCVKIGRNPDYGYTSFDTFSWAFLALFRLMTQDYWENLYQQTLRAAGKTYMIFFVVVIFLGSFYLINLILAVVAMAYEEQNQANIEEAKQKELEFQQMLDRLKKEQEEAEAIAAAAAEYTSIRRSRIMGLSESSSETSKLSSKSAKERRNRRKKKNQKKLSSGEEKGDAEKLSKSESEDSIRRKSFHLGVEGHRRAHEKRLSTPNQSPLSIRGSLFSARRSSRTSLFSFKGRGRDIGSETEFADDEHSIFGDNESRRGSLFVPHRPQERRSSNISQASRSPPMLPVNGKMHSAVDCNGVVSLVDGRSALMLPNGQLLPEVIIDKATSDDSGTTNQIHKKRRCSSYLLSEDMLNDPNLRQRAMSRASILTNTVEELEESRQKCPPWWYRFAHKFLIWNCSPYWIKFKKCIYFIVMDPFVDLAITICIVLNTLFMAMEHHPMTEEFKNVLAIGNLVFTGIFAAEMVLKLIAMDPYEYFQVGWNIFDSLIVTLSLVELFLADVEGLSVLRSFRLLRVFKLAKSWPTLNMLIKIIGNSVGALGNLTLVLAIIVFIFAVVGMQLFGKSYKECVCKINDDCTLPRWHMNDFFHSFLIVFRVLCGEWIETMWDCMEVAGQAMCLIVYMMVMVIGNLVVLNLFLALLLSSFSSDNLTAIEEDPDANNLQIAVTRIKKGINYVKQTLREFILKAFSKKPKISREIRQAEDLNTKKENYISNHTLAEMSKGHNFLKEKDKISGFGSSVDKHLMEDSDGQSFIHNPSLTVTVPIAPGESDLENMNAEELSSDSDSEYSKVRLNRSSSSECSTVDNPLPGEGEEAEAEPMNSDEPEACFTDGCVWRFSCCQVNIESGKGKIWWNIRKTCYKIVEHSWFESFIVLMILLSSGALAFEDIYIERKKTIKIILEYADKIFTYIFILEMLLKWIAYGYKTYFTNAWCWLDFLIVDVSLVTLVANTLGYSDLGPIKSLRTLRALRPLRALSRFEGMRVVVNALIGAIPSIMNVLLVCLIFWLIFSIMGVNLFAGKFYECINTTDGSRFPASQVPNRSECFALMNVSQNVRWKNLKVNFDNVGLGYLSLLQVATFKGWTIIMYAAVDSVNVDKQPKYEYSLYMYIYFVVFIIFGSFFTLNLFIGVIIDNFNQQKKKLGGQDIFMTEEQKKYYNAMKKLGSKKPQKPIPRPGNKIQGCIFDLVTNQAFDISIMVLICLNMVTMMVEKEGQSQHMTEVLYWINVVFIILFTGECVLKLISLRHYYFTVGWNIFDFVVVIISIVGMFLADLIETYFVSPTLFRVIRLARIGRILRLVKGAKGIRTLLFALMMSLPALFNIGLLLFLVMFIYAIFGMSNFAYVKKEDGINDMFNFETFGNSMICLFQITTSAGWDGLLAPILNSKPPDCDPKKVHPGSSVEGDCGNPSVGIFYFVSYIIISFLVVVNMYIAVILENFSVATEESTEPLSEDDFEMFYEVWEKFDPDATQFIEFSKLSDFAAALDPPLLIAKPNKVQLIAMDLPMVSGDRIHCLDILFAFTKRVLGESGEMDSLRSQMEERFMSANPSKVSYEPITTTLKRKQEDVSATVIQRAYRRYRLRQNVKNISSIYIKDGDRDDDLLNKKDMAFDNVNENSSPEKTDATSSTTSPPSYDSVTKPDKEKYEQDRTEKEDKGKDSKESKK
Summary of the method: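 Population patch clamp of HEK293 cells stably expressing human Nav 1.7: 26 pulses to −20 mV (150 ms, 5 Hz) from −110 mV, then 4 min at −20 mV with compound, 3 s recovery at −110 mV and the train repeated. % inhibition of 26th-pulse peak current vs no compound; IC50 from concentration-response curves.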

human Nav1.7 [2] = target: T1, human Nav1.7; test: Nav 1.7 In Vitro PatchXpress (PX) Assay; format: cell-based; details: HEK 293 cells stably transfected with human Nav1.7; PatchXpress whole cell voltage clamp; partially inactivated state (holding potential yielding 20 to 50% inactivation); read-out: hNav1.7 PX IC50
Summary of the method: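 Whole-cell voltage clamp on HEK 293 cells stably expressing human Nav1.7 (automated patch), holding potential giving 20–50% inactivation; 20 ms pulses to −10 mV at 0.1 Hz. Single compound concentration applied 3 min, peak current inhibition measured; IC50 fitted from 3–5 cells per concentration.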

Compound	pIC50 (human Nav1.7 [1])	pIC50 (human Nav1.7 [2])
COc1cc(-c2ccc(F)c(C)c2)c(F)cc1-n1c2c(ccc1=O)CN(S(=O)(=O)Nc1ccon1)CC2 (single isomer, unassigned) [Example 22-M, M-1-(2,4′-difluoro-5-methoxy-3′-methyl-4-biphenylyl)-N-3-isoxazolyl-2-oxo-1,5,7,8-tetrahydro-1,6-naphthyridine-6(2H)-sulfonamide]	< 5.00	< 4.52
COc1cc(-c2ccc(F)c(F)c2)c(F)cc1-n1c2c(ccc1=O)CN(S(=O)(=O)Nc1ncccn1)CC2 (single isomer, unassigned) [Example 28-M, M-2-oxo-N-2-pyrimidinyl-1-(2,3′,4′-trifluoro-5-methoxy-4-biphenylyl)-1,5,7,8-tetrahydro-1,6-naphthyridine-6(2H)-sulfonamide]	< 5.00	< 4.52
COc1cc(-c2ccc(F)c(F)c2)c(F)cc1-n1c2c(ccc1=O)CN(S(=O)(=O)Nc1ncccn1)CC2 (single isomer, unassigned) [Example 28-P, P-2-oxo-N-2-pyrimidinyl-1-(2,3′,4′-trifluoro-5-methoxy-4-biphenylyl)-1,5,7,8-tetrahydro-1,6-naphthyridine-6(2H)-sulfonamide]	7.09	6.30
COc1cc(-c2ccc(F)c(C)c2)c(F)cc1-n1c2c(ccc1=O)CN(S(=O)(=O)Nc1ncccn1)CC2 (single isomer, unassigned) [Example 29-M, M-1-(2,4′-difluoro-5-methoxy-3′-methyl-4-biphenylyl)-2-oxo-N-2-pyrimidinyl-1,5,7,8-tetrahydro-1,6-naphthyridine-6(2H)-sulfonamide]	< 5.60	< 4.52
COc1cc(-c2ccc(F)c(C)c2)c(F)cc1-n1c2c(ccc1=O)CN(S(=O)(=O)Nc1ncccn1)CC2 (single isomer, unassigned) [Example 29-P, P-1-(2,4′-difluoro-5-methoxy-3′-methyl-4-biphenylyl)-2-oxo-N-2-pyrimidinyl-1,5,7,8-tetrahydro-1,6-naphthyridine-6(2H)-sulfonamide]	7.26	6.25
COc1cc(-c2ccc(Cl)c(C)c2)c(F)cc1-n1c2c(ccc1=O)CN(S(=O)(=O)Nc1ncccn1)CC2 (single isomer, unassigned) [Example 30-M, M-1-(4′-chloro-2-fluoro-5-methoxy-3′-methyl-4-biphenylyl)-2-oxo-N-2-pyrimidinyl-1,5,7,8-tetrahydro-1,6-naphthyridine-6(2H)-sulfonamide]	5.41	4.60
COc1cc(-c2cc(F)cc(Cl)c2)c(F)cc1-n1c2c(ccc1=O)CN(S(=O)(=O)Nc1ncccn1)CC2 (single isomer, unassigned) [Example 31-M, M-1-(3′-chloro-2,5′-difluoro-5-methoxy-4-biphenylyl)-2-oxo-N-2-pyrimidinyl-1,5,7,8-tetrahydro-1,6-naphthyridine-6(2H)-sulfonamide]	5.56	5.30
COc1cc(-c2cc(F)cc(Cl)c2)c(F)cc1-n1c2c(ccc1=O)CN(S(=O)(=O)Nc1ncccn1)CC2 (single isomer, unassigned) [Example 31-P, P-1-(3′-chloro-2,5′-difluoro-5-methoxy-4-biphenylyl)-2-oxo-N-2-pyrimidinyl-1,5,7,8-tetrahydro-1,6-naphthyridine-6(2H)-sulfonamide]	7.43	6.69
COc1cc(-c2ccc(F)c(F)c2)c(F)cc1-n1c2c(ccc1=O)CN(S(=O)(=O)Nc1cccnn1)CC2 (single isomer, unassigned) [Example 32-M, M-2-oxo-N-3-pyridazinyl-1-(2,3′,4′-trifluoro-5-methoxy-4-biphenylyl)-1,5,7,8-tetrahydro-1,6-naphthyridine-6(2H)-sulfonamide]	6.00	4.69
COc1cc(-c2cc(F)cc(Cl)c2)c(F)cc1-n1c2c(ccc1=O)CN(S(=O)(=O)Nc1cccnn1)CC2 (single isomer, unassigned) [Example 38-M, M-1-(3′-chloro-2,5′-difluoro-5-methoxy-4-biphenylyl)-2-oxo-N-3-pyridazinyl-1,5,7,8-tetrahydro-1,6-naphthyridine-6(2H)-sulfonamide]	6.18	5.51
COc1cc(-c2cccc(C(F)(F)F)c2)c(Cl)cc1-n1c2c(ccc1=O)CN(S(=O)(=O)Nc1cccnn1)CC2 (single isomer, unassigned) [Example 91-M, M-1-(2-chloro-5-methoxy-3′-(trifluoromethyl)-[1,1′-biphenyl]-4-yl)-2-oxo-N-(pyridazin-3-yl)-1,2,7,8-tetrahydro-1,6-naphthyridine-6(5H)-sulfonamide]	6.81	6.17
COc1cc(-c2ccc(F)c(C)c2)c(Cl)cc1-n1c2c(ccc1=O)CN(S(=O)(=O)Nc1cccnn1)CC2 (single isomer, unassigned) [Example 92-M, M-1-(2-chloro-4′-fluoro-5-methoxy-3′-methyl-[1,1′-biphenyl]-4-yl)-2-oxo-N-(pyridazin-3-yl)-1,2,7,8-tetrahydro-1,6-naphthyridine-6(5H)-sulfonamide]	6.55	5.52
COc1cc(-c2ccc(F)c(C)c2)c(Cl)cc1-n1c2c(ccc1=O)CN(S(=O)(=O)Nc1cccnn1)CC2 (single isomer, unassigned) [Example 92-P, P-1-(2-chloro-4′-fluoro-5-methoxy-3′-methyl-[1,1′-biphenyl]-4-yl)-2-oxo-N-(pyridazin-3-yl)-1,2,7,8-tetrahydro-1,6-naphthyridine-6(5H)-sulfonamide]	8.23	7.38
COc1cc(-c2ccc(F)c(C)c2)c(C)cc1-n1c2c(ccc1=O)CN(S(=O)(=O)Nc1cccnn1)CC2 (single isomer, unassigned) [Example 93-M, M-1-(4′-fluoro-5-methoxy-2,3′-dimethyl-[1,1′-biphenyl]-4-yl)-2-oxo-N-(pyridazin-3-yl)-1,2,7,8-tetrahydro-1,6-naphthyridine-6(5H)-sulfonamide]	6.57	5.74
COc1cc(-c2ccc(F)c(C)c2)c(C)cc1-n1c2c(ccc1=O)CN(S(=O)(=O)Nc1cccnn1)CC2 (single isomer, unassigned) [Example 93-P, P-1-(4′-fluoro-5-methoxy-2,3′-dimethyl-[1,1′-biphenyl]-4-yl)-2-oxo-N-(pyridazin-3-yl)-1,2,7,8-tetrahydro-1,6-naphthyridine-6(5H)-sulfonamide]	7.66	6.94
COc1cc(-c2cc(F)cc(F)c2)c(F)cc1-n1c2c(ccc1=O)[C@@H](C)N(S(=O)(=O)Nc1ccon1)CC2 [Example 3-A-P, P-(5R)-N-3-isoxazolyl-5-methyl-2-oxo-1-(2,3′,5′-trifluoro-5-methoxy-4-biphenylyl)-1,5,7,8-tetrahydro-1,6-naphthyridine-6(2H)-sulfonamide]	5.92	< 6.00
COc1cc(-c2cc(F)cc(F)c2)c(F)cc1-n1c2c(ccc1=O)[C@H](C)N(S(=O)(=O)Nc1ccon1)CC2 [Example 3-B-M, M-(5S)-N-3-isoxazolyl-5-methyl-2-oxo-1-(2,3′,5′-trifluoro-5-methoxy-4-biphenylyl)-1,5,7,8-tetrahydro-1,6-naphthyridine-6(2H)-sulfonamide]	< 4.52	< 6.00
